Experimental data taken from patent EP0094564A2, “Azolyl-methyl oxiranes, their preparation and use as medicaments and plant protecting agents” (BASF Aktiengesellschaft, priority 1982, dated 1983).
In brackets after ≈: the same amount, converted by molar mass.

Experiments:
Trichom. vag. = experiment: Minimal inhibitory concentration in vitro (protozoa); assay type: cell-based; conditions: read-out: Minimale Hemmkonzentration (MHK) Trichom. vag.
Text: (§1) Die Wirkung gegen Dermatophyten, Bakterien und Protozonen kann nach Methoden, wie sie beispielsweise in P. Klein, Bakteriologische Grundlagen der chemotherapeutischen Laboratoriumspraxis, Springer-Verlag Berlin, 1957, beschrieben wird, aufgezeigt werden. Die überraschende Wirkung gegenüber Hefen wurde im Pseudomyzel- und Myzelphasentest mit Candida albicans nachgewiesen (vgl. DE-OS 30 10 093). Es wurde geprüft, welche minimalen Hemmkonzentrationen (MHK-Werte) im Agardilutionstest erreicht werden. In der Tabelle 1 sind die Ergebnisse zusammengefaßt.

Cand.alb. H = experiment: Candida albicans pseudomycelium/mycelium phase test, MIC; assay type: cell-based; conditions: in vitro, column H, read-out: Minimale Hemmkonzentration (MHK) Cand.alb. H
Text: as §1

[1] = system: Gurkenmehltau (Erysiphe cichoracearum); experiment: Versuch 3: activity against cucumber powdery mildew on cucumber seedlings; assay type: in vivo; conditions: 0,025 %ige Spritzbrühe; sprayed about 20 h after inoculation; assessed after 21 days; value given as 'beispielsweise'
Text: Blätter von in Töpfen gewachsenen Gurkenkeimlingen der Sorte "Chinesische Schlange" wurden im Zweiblattstadium mit einer Sporensuspension des Gurkenmehltaus (Erysiphe cichoracearum) besprüht. Nach etwa 20 Stunden wurden die Versuchspflanzen mit wäßriger Spritzbrühe, die 80 % Wirkstoff und 20 % Emulgiermittel in der Trockensubstanz enthielt, bis zur Tropfnässe besprüht. Nach dem Antrocknen des J Spritzbelages wurden sie anschließend im Gewächshaus bei Temperaturen zwischen 20 und 22^00 und 70 bis 80 % relativer Luftfeuchtigkeit aufgestellt. Zur Beurteilung der Wirksamkeit der neuen Stoffe wurde das Ausmaß der Pilzentwicklung nach 21 Tagen beurteilt.

Cand.alb. M = experiment: Candida albicans pseudomycelium/mycelium phase test, MIC (column M); assay type: cell-based; conditions: in vitro, read-out: Minimale Hemmkonzentration (MHK) Cand.alb. M
Text: as §1

Botrytis cinerea = experiment: Versuch 4: activity against Botrytis cinerea on paprika seedlings; assay type: in vivo; conditions: 0,05 %ige Spritzbrühe; sprayed before inoculation; assessed after 5 days; value given as 'beispielsweise'
Text: Paprikasämlinge der Sorte "Neusiedler Ideal Elite" wurden, nachdem sich 4 bis 5 Blätter gut entwickelt hatten, mit wäßrigen Suspensionen, die 80 % Wirkstoff und 20 % Emulgiermittel in der Trockensubstanz enthielten, tropfnaß gespritzt. Nach dem Antrocknen des Spritzbelages wurden die Pflanzen mit einer Konidienaufschwemmung des Pilzes Botrytis cenerea besprüht und bei 22 bis 24 C in eine Kammer mit hoher Luftfeuchtigkeit gestellt. Nach 5 Tagen hatte sich die Krankheit auf den unbehandelten Kontrollpflanzen so stark entwickelt, daß die entstandenen Blattnekrosen den überwiegenden Teil der Blätter bedeckten.

Epid. flocc. 157 = experiment: Agar dilution test, minimal inhibitory concentration in vitro; assay type: cell-based; conditions: read-out: Minimale Hemmkonzentration (MHK) Epid. flocc. 157
Text: as §1

E.coli muta-flor = experiment: as above; assay type: cell-based; conditions: Escherichia coli, read-out: Minimale Hemmkonzentration (MHK) E.coli muta-flor
Text: as §1

Trichoph. ment. 21 = experiment: as above; assay type: cell-based; conditions: read-out: Minimale Hemmkonzentration (MHK) Trichoph. ment. 21
Text: as §1

Aps.fum. 2 = experiment: as above; assay type: cell-based; conditions: read-out: Minimale Hemmkonzentration (MHK) Aps.fum. 2
Text: as §1

Mucor pus. 6 = experiment: as above; assay type: cell-based; conditions: read-out: Minimale Hemmkonzentration (MHK) Mucor pus. 6
Text: as §1

Staph. aur. SG 511 = experiment: as above; assay type: cell-based; conditions: read-out: Minimale Hemmkonzentration (MHK) Staph. aur. SG 511
Text: as §1

Strept. faec. 8043 = experiment: as above; assay type: cell-based; conditions: read-out: Minimale Hemmkonzentration (MHK) Strept. faec. 8043
Text: as §1

Abs. corym. 1 = experiment: as above; assay type: cell-based; conditions: read-out: Minimale Hemmkonzentration (MHK) Abs. corym. 1
Text: as §1

[2] = system: Weizenmehltau (Erysiphe graminis var. tritici); experiment: Versuch 1: activity against wheat powdery mildew on wheat seedlings; assay type: in vivo; conditions: 0,025; 0,006; 0,0015 %ige Spritzbrühen; sprayed 24 h before inoculation; assessed after 7 days; value given as 'beispielsweise'
Description: Blätter von in Töpfen gewachsenen Weizenkeimlingen der Sorte "Jubilar" wurden mit wäßriger Spritzbrühe, die 80 % (Gew.%) Wirkstoff und 20 % Emulgiermittel in der Trockensubstanz enthielt, besprüht und 24 Stunden nach dem Antrocknen des Spritzbelages mit Oidien (Sporen) des Weizenmehltaus (Erysiphe graminis var. tritici) bestäubt. Die Versuchspflanzen wurden anschließend im Gewächshaus bei Temperaturen zwischen 20 und 22 °C und 75 bis 80 % relativer Luftfeuchtigkeit aufgestellt. Nach 7 Tagen wurde das Ausmaß der Mehltauentwicklung ermittelt.

[3] = system: Weizenbraunrost (Puccinia recondita); experiment: Versuch 2: activity against wheat brown rust on wheat seedlings; assay type: in vivo; conditions: 0,025; 0,006; 0,0015 %ige Spritzbrühen; sprayed 24 h after inoculation; assessed after 8 days; value given as 'beispielsweise'
Description: Blätter von in Töpfen gewachsenen Weizensämlingen der Sorte "Jubilar" wurden mit Sporen des Braunrostes (Puccinia recondita) bestäubt. Danach wurden die Töpfe für 24 Stunden bei 20 bis 22°C in eine Kammer mit hoher Luftfeuchtigkeit (90 bis 95 %) gestellt. Während dieser Zeit keimten die Sporen aus und die Keimschläuche drangen in das Blattgewebe ein. Die infizierten Pflanzen wurden anschließend mit wäßrigen Spritzbrühen, die 80 % Wirkstoff und 20 % Emulgiermittel in der Trockensubstanz enthielten, tropfnaß gespritzt. Nach dem Antrocknen des Spritzbelages wurden die Versuchspflanzen im Gewächshaus bei Temperaturen zwischen 20 und 22°C und 65 bis 70 % relativer Luftfeuchte aufgestellt. Nach 8 Tagen wurde das Ausmaß der Rostpilzentwicklung auf den Blättern ermittelt.

Entamoeb hist. = experiment: Minimal inhibitory concentration in vitro (protozoa); assay type: cell-based; conditions: read-out: Minimale Hemmkonzentration (MHK) Entamoeb hist.
Text: as §1

Microsp. ferrug. 5 = experiment: Agar dilution test, minimal inhibitory concentration in vitro; assay type: cell-based; conditions: read-out: Minimale Hemmkonzentration (MHK) Microsp. ferrug. 5
Text: as §1

Pullularia pullulans = experiment: Versuch 5: filter paper disc inhibition zone test on malt extract agar; assay type: cell-based; conditions: 72 h, discs soaked with 0,2 ml of 200 ppm solution, 3 days at 22 to 24 °C, read-out: Wirksamkeit gegen Pullularia pullulans
Description: Filtrierpäpierscheiben mit einem Durchmesser von 13 mm und einer Stärke von 1 mm werden mit 0,2 ml Lösungen getränkt, die jeweils 200 Teile Wirkstoff je Million Teile Lösung (ppm) enthalten. Die Scheiben werden dann auf einem 2 %igen Malzextraktagar in Petrischalen gelegt, die zuvor getrennt mit Sporen des holzverfärbenden Pilzes Pullularia pullulans beimpft wurden. Anschließend werden die Schalen 3 Tage lang bei 22 bis 24 °C bebrütet. Nach dieser Zeit hat sich der Pilz in den Kontrollschalen sehr gut entwickelt.
Die fungizide Wirksamkeit der Wirkstoffe wird anhand der um die Filtrierpapierscheiben herum entstandenen pilzfreien Zonen (Hemmhöfe) wie folgt beurteilt: […]

Coniophora puteana = experiment: Versuch 6: fungal growth on malt extract agar containing active ingredient; assay type: cell-based; set-up: key: 0 = kein Pilzwachstum (Pilzmyzel abgetötet); 1 = geringes Pilzwachstum (bis 1/3 der Agaroberfläche bewachsen); 3 = mittleres Pilzwachstum (bis 2/3 der Agaroberfläche bewachsen); 5 = ungehemmtes Pilzwachstum (gesamte Agaroberfläche bewachsen); conditions: 40 ppm in 5 % malt extract agar; 5 days at 25 °C; growth score
Text: (§2) Die Wirkstoffe werden in Aceton gelöst, in Mengen von 40 ppm einem verflüssigten 5 %igen Malzextraktagar zugesetzt. Der Agar wird in Petrischalen ausgegossen und nach dem Erstarren werden die fungizidhaltigen Nähragarplatten zentral mit Myzel der holzzerstörenden Pilze Coniophora puteana und Trametes versicolor, des Moderfäule und Stockflecken verursachenden Pilzes Chaetomium globosum sowie mit Sporen des grünen Holzschimmels Trichoderma viride beimpft.
(§3) Nach fünftägiger Bebrütung der Schalen bei 25 °C wird die Entwicklung der Pilzkolonien auf dem Nährboden im Vergleich mit der Kontrolle (ohne Wirkstoff-Zusatz) beurteilt: • 0 = kein Pilzwachstum (Pilzmyzel abgetötet) • 1 = geringes Pilzwachstum (bis 1/3 der Agaroberfläche bewachsen) • 3 = mittleres Pilzwachstum (bis 2/3 der Agaroberfläche bewachsen) • 5 = ungehemmtes Pilzwachstum (gesamte Agaroberfläche bewachsen)

Chaetomium globosum = experiment: as above; assay type: cell-based; set-up: key: 0 = kein Pilzwachstum (Pilzmyzel abgetötet); 1 = geringes Pilzwachstum (bis 1/3 der Agaroberfläche bewachsen); 3 = mittleres Pilzwachstum (bis 2/3 der Agaroberfläche bewachsen); 5 = ungehemmtes Pilzwachstum (gesamte Agaroberfläche bewachsen); conditions: 40 ppm in 5 % malt extract agar; 5 days at 25 °C; growth score
Text: as §2, §3

Trametes versicolor = experiment: as above; assay type: cell-based; set-up: key: 0 = kein Pilzwachstum (Pilzmyzel abgetötet); 1 = geringes Pilzwachstum (bis 1/3 der Agaroberfläche bewachsen); 3 = mittleres Pilzwachstum (bis 2/3 der Agaroberfläche bewachsen); 5 = ungehemmtes Pilzwachstum (gesamte Agaroberfläche bewachsen); conditions: 40 ppm in 5 % malt extract agar; 5 days at 25 °C; growth score
Text: as §2, §3

Trichoderma viride = experiment: as above; assay type: cell-based; set-up: key: 0 = kein Pilzwachstum (Pilzmyzel abgetötet); 1 = geringes Pilzwachstum (bis 1/3 der Agaroberfläche bewachsen); 3 = mittleres Pilzwachstum (bis 2/3 der Agaroberfläche bewachsen); 5 = ungehemmtes Pilzwachstum (gesamte Agaroberfläche bewachsen); conditions: 40 ppm in 5 % malt extract agar; 5 days at 25 °C; growth score
Text: as §2, §3

| MIC (Trichom. vag.) [µg/mL] | MIC (Cand.alb. H) [µg/mL] | MIC (Cand.alb. M) [µg/mL] | MIC (Epid. flocc. 157) [µg/mL] | MIC (E.coli muta-flor) [µg/mL] | MIC (Trichoph. ment. 21) [µg/mL] | MIC (Aps.fum. 2) [µg/mL] | MIC (Mucor pus. 6) [µg/mL] | MIC (Staph. aur. SG 511) [µg/mL] | MIC (Strept. faec. 8043) [µg/mL] | MIC (Abs. corym. 1) [µg/mL] | MIC (Entamoeb hist.) [µg/mL] | MIC (Microsp. ferrug. 5) [µg/mL] | Structure (SMILES) | fungizide Wirkung gegen Gurkenmehltau [1] [%] | fungizide Wirkung gegen Botrytis cinerea an Paprika (Botrytis cinerea) [%] | fungizide Wirkung gegen Weizenbraunrost [3] [%] | zone of inhibition at 200 ppm (Pullularia pullulans) [mm] | Wirksamkeit gegen Coniophora puteana (Coniophora puteana) | Wirksamkeit gegen Chaetomium globosum (Chaetomium globosum) | Wirksamkeit gegen Trametes versicolor (Trametes versicolor) | also measured |
| --- | --- | --- | --- | --- | --- | --- | --- | --- | --- | --- | --- | --- | --- | --- | --- | --- | --- | --- | --- | --- | --- |
| > 16 | 16 (≈ 42.1 µM) | < 0.0039 | 0.5 (≈ 1.32 µM) | > 128 | 0.5 (≈ 1.32 µM) | 1 (≈ 2.63 µM) | 1 (≈ 2.63 µM) | 16 (≈ 42.1 µM) | 128 (≈ 337 µM) | 0.5 (≈ 1.32 µM) |  |  | Clc1ccc(C2(Cn3ccnc3)OC2c2ccc(Cl)cc2Cl)cc1 (single isomer, unassigned) [Beispiel 1, 2-(1H-Imidazol-1-yl-methyl)-2-(4-chlorphenyl)-3-(2,4-dichlorphenyl)-oxiran] | 100 | 97 |  |  |  |  |  | fungizide Wirkung gegen Weizenmehltau [2]: 100% |
| > 16 | > 128 |  | 4 (≈ 10.5 µM) | > 128 | 8 (≈ 21 µM) | > 128 | 1 (≈ 2.63 µM) | 32 (≈ 84.1 µM) | > 128 | 2 (≈ 5.25 µM) | > 1 | 2 (≈ 5.25 µM) | Clc1ccc(C2(Cn3cncn3)OC2c2ccc(Cl)cc2Cl)cc1 (single isomer, unassigned) [Beispiel 3, 2-(1,2,4-Triazol-1-yl--methyl)-2-(4-chlorphenyl)-3-(2,4-dichlorphenyl)-oxiran] |  | 97 | 100 |  |  |  |  |  |
| > 16 | > 16 |  | 0.25 (≈ 0.769 µM) | > 128 | 0.5 (≈ 1.54 µM) | 0.5 (≈ 1.54 µM) | 16 (≈ 49.2 µM) | 4 (≈ 12.3 µM) | 2 (≈ 6.15 µM) | 32 (≈ 98.4 µM) | > 1 | 0.25 (≈ 0.769 µM) | CC(C)(C)C1(Cn2ccnc2)OC1c1ccc(Cl)cc1Cl (single isomer, unassigned) [Beispiel 18] | 100 |  |  |  |  |  |  |  |
| > 16 | 2 (≈ 4.98 µM) | 1 (≈ 2.49 µM) | 16 (≈ 39.9 µM) | > 128 | 16 (≈ 39.9 µM) | > 128 | 8 (≈ 19.9 µM) | 8 (≈ 19.9 µM) | 2 (≈ 4.98 µM) | 16 (≈ 39.9 µM) | > 1 | 8 (≈ 19.9 µM) | CC(C)(C)c1ccc(C2OC2(Cn2ccnc2)c2ccc(Cl)cc2Cl)cc1 (single isomer, unassigned) [Beispiel 21] |  |  |  |  |  |  |  |  |
|  |  |  |  |  |  |  |  |  |  |  |  |  | CC1(Cn2cncn2)OC1c1ccc(Cl)cc1Cl (single isomer, unassigned) [Beispiel 22] |  |  |  | > 6 | 1 | 1 | 0 | Wirksamkeit gegen Trichoderma viride (Trichoderma viride): 1 |
| > 16 | 128 (≈ 376 µM) | 0.25 (≈ 0.734 µM) | 2 (≈ 5.87 µM) | > 128 | 2 (≈ 5.87 µM) | 16 (≈ 46.9 µM) | 4 (≈ 11.7 µM) | 16 (≈ 46.9 µM) | 4 (≈ 11.7 µM) | 8 (≈ 23.5 µM) | > 1 | 2 (≈ 5.87 µM) | COc1cccc(C2OC2(Cn2ccnc2)c2ccc(Cl)cc2)c1 (single isomer, unassigned) [Beispiel 29] |  |  |  |  |  |  |  |  |
| > 16 | 64 (≈ 187 µM) | 2 (≈ 5.85 µM) | 8 (≈ 23.4 µM) | > 128 | 8 (≈ 23.4 µM) | > 128 | 8 (≈ 23.4 µM) | > 128 | > 128 | 16 (≈ 46.8 µM) | > 1 | 2 (≈ 5.85 µM) | COc1cccc(C2OC2(Cn2cncn2)c2ccc(Cl)cc2)c1 (single isomer, unassigned) [Beispiel 30] |  | 97 | 100 |  |  |  |  |  |
|  |  |  |  |  |  |  |  |  |  |  |  |  | Clc1ccc(C2OC2(Cn2cncn2)c2ccc(-c3ccccc3)cc2)cc1 (single isomer, unassigned) [Beispiel 42] | 100 | 97 | 100 | > 6 | 0 | 0 | 0 | fungizide Wirkung gegen Weizenmehltau [2]: 100%; Wirksamkeit gegen Trichoderma viride (Trichoderma viride): 0 |
| > 16 | 64 (≈ 164 µM) | 0.0156 (≈ 0.04 µM) | 1 (≈ 2.57 µM) | > 128 | 1 (≈ 2.57 µM) | 16 (≈ 41.1 µM) | 2 (≈ 5.13 µM) | 8 (≈ 20.5 µM) | 4 (≈ 10.3 µM) | 2 (≈ 5.13 µM) | > 1 | 0.25 (≈ 0.642 µM) | Clc1ccc(C2(Cn3ccnc3)OC2c2ccc(Br)cc2)cc1 (single isomer, unassigned) [Beispiel 47] |  |  |  |  |  |  |  |  |
|  |  |  |  |  |  |  |  |  |  |  |  |  | Fc1ccc(C2OC2(Cn2cncn2)c2ccc(Cl)cc2)cc1 (single isomer, unassigned) [Beispiel 50] |  |  |  | > 6 | 0 | 0 | 0 | Wirksamkeit gegen Trichoderma viride (Trichoderma viride): 0 |
